Several values for one entry are separate records, joined by “and”; a condition that tells them apart may be missing. Equal entries are not always repeated.
System: P. falciparum 3D7 growth, pLDH absorbance
Experiment: blood-stage malaria parasite growth potency – strain 3D7, dose response (AID 2305)

## CCCCc1ccc(NC(=O)Nc2cccc(CCNCc3ccccc3)c2)cc1
  IC50: 0.88 µM

## OCCCCCCN=Cc1[nH]c(=S)sc1O
  IC50: 0.85 µM

## Cc1ccoc1C(=O)Nc1cccc(-c2cccc(-c3nc4ccc(C(F)(F)F)cc4[nH]3)c2)c1
  IC50: 0.61 µM

## O=C(/C=C/c1ccc(Cl)c(Cl)c1)NCCCCCCN1CCCN(C(=O)Nc2cc(F)cc(F)c2)CC1
  IC50: 0.71 µM

## CC(=O)N1Cc2ccccc2C1=O
  IC50: 0.52 µM

## Cc1[nH]c2ccc(O)cc2c1C1CCN(CC2CCC(NC(=O)/C=C/c3ccc(Cl)c(Cl)c3)CC2)CC1 (configuration not stated)
  IC50: 0.76 µM

## COc1cc(C2CCN(CCCCNC(=O)c3ccc(NC(=O)c4cc(C(F)(F)F)cc(C(F)(F)F)c4)cc3)CC2)ccc1OC(C)C
  IC50: 0.15 µM

## COc1cc(F)c2ncc(Cl)c(C(O)CN3CCC(NC(=O)c4ccc5c(n4)NC(=O)CO5)CC3)c2c1 (configuration not stated)
  IC50: 0.75 µM

## CC(C)c1cccc(C(C)C)c1NC(=O)NNC(=O)c1ccc(CCN2CCC(c3nc(COCC(F)(F)F)c(-c4ccc(F)cc4)o3)CC2)cc1
  IC50: 1.09 µM

## CN(C)c1ccc(CN2CCC(CNC(=O)c3cc(-c4ccccc4F)cs3)C2)cc1 (configuration not stated)
  IC50: 0.91 µM

## OC(CNCc1ccccc1OCc1ccccc1)c1cccc(Cl)c1 (configuration not stated)
  IC50: 0.22 µM

## CN(C)CCCSc1ccccc1NC(=O)C=Cc1ccccc1
  IC50: 0.96 µM

## O=C(NCCN1CCCc2ccccc21)C1CCN(c2nc(-c3ccc(Cl)cc3)no2)CC1
  IC50: 0.69 µM

## CCN(c1ccccc1)S(=O)(=O)c1ccc(OC)c(NC(=O)c2cccc(C(F)(F)F)c2)c1
  IC50: 0.88 µM

## CCOc1c(CCNCCCCNCCc2ccc3ccccc3c2OCC)ccc2ccccc12
  IC50: 0.6 µM

## Cc1ccc(NS(=O)(=O)c2ccc(C(C)N3CCC(N4CCCCC4)CC3)cc2)cc1C (configuration not stated)
  IC50: 0.76 µM

## COc1cccc(NC(=O)Nc2cc(-c3ccc4[nH]ncc4c3)cc3c2CNC3=O)c1
  IC50: 0.12 µM

## COc1ccc2nccc([C@@H](O)CN3CCC(NC(=O)C(=Cc4ccc(C#N)cc4)c4ccc(-c5ccccc5)cc4)CC3)c2c1
  IC50: 0.74 µM

## CCc1ccc(CN2CCC(CNC(=O)c3cc(-c4ccccc4Cl)cs3)C2)cc1 (configuration not stated)
  IC50: 1.43 µM

## CCNc1cc(C)nc(Nc2ccc(NC(=O)c3ccccc3Cl)cc2)n1
  IC50: 1.01 µM

## CCN(CC)CCCC(C)Nc1c(-c2ccc(OC)cc2)cnc2ccccc12 (configuration not stated)
  IC50: 0.89 µM

## CN(C)c1ccc(-c2ccc(C(=O)NC3CCN(Cc4ccc(F)cc4)CC3)s2)cc1
  IC50: 1.05 µM

## Cc1cc(F)ccc1-c1nc(NCCCN2CCCC2=O)nc2c1ccc(=O)n2-c1c(F)cccc1F
  IC50: 1.02 µM

## Cc1cc(NCCC(=O)Nc2ccccc2)nc(NCCc2cccnc2)n1
  IC50: 1.24 µM

## CC(C)CCNCc1c(O)ccc2ccccc12
  IC50: 1.67 µM

## COc1ccc2nccc([C@@H](O)CN3CCC(NCC4COc5ccccc5O4)CC3)c2c1 (some centres not stated)
  IC50: 0.25 µM

## Cc1ccc(Nc2nc(NN=Cc3cc4c(cc3Br)OCO4)nc(Nc3ccc([N+](=O)[O-])cc3)n2)cc1C
  IC50: 0.75 µM

## COc1cc(NC(=O)/C=C/c2cc(F)cc(F)c2F)cc(OCCN2CCCCC2)c1
  IC50: 0.15 µM

## CC(C)(CNC(=O)C1CCN(Cc2ccoc2)CC1)c1nc(-c2ccc(Cl)c(O)c2)c(-c2ccncc2)[nH]1
  IC50: 0.87 µM

## COc1ccc(CN2CCCN(Cc3ccc(C(=O)Nc4ccc(Cl)cc4)cc3)CC2)cc1
  IC50: 0.92 µM

## C[C@@H](NCCc1cccc(Cl)c1)[C@@H](O)c1ccc(OCCCCCCOc2ccc([C@H](O)[C@@H](C)NCCc3cccc(Cl)c3)cc2)cc1
  IC50: 0.4 µM

## COc1ccc(-c2ccc(NC(=O)c3cccc(C#N)c3)cc2)cc1CN1CCN(C)CC1
  IC50: 0.71 µM

## Cc1cnc(C(=O)Nc2cccc(-c3ccc(-c4nc5ccc(C(F)(F)F)cc5[nH]4)s3)c2)cn1
  IC50: 0.7 µM

## CC1CCN(Cc2c(O)ccc3c(=O)c(-c4nc5ccccc5s4)c(N)oc23)CC1
  IC50: 0.16 µM

## N#Cc1ccc2c(c1)CCN(CCC1CCC(NC(=O)c3cc4cccc(Cl)c4[nH]3)CC1)CC2 (configuration not stated)
  IC50: 0.58 µM

## CCCCN(CCCC)Cc1cc(Nc2ccnc3cc(Cl)ccc23)ccc1O
  IC50: 0.02 µM

## Cn1nc(-c2ccc(CNC3CCc4ccccc43)cc2)c2cnc(NCCN3CCCC3)nc21 (configuration not stated)
  IC50: 1.35 µM

## NCCCCc1c(-c2ccc(Cl)c(Cl)c2)[nH]c2ccc(Cl)cc12
  IC50: 0.91 µM

## O=C(NCC1CC1)C1CCN(C(c2ccc(Cl)cc2)c2ccc(Cl)cc2)CC1
  IC50: 0.19 µM

## Cc1cccc2[nH]c(-c3ccc(-c4ccc(NC(=O)NCc5cccc(F)c5)cc4)cc3)nc12
  IC50: 1.3 µM

## CC(C)(C)c1ccc(-c2nnc(N)nc2N)cc1
  IC50: 0.86 µM

## COc1ccc2c(=O)c(Br)c(C)[nH]c2c1
  IC50: 0.19 µM

## Cc1cc(N)c2cc(NC(=O)c3cccc(C(=O)Nc4ccc5nc(C)cc(N)c5c4)c3)ccc2n1
  IC50: 0.26 µM

## Cc1ccc(NC(=O)c2cn(-c3ccccc3)nc2-c2ccc(F)cc2)cc1[N+](=O)[O-]
  IC50: 1 µM

## O=C(Nc1ccc(-c2cccc(-c3nc4ccccc4[nH]3)c2)cc1)N[C@@H]1C[C@H]1c1ccccc1
  IC50: 0.63 µM

## N#Cc1ccc(N[C@@H](CC2CCCCC2)C(=O)NCc2cc(F)c(F)cc2F)c2ccccc12
  IC50: 0.95 µM

## COc1ccc(CNC2CCN(C)CC2)cc1-c1cccc(S(=O)(=O)NCc2ccccc2)c1
  IC50: 0.72 µM

## CCOc1cc(C)ccc1NC1CCN(CCCCNC(=O)c2ccc(NC(=O)c3ccc(Cl)cc3)cc2)CC1
  IC50: 0.71 µM

## O=C(Cc1cnc[nH]1)Nc1cccc(-c2cccc(-c3nc4ccc(F)cc4[nH]3)c2)c1
  IC50: 0.78 µM

## COc1ccc(CCNc2ccnc3cc(Cl)ccc23)cc1OC
  IC50: 0.89 µM

## Cc1cccc2[nH]c(-c3cccc(-c4ccc(NC(=O)Cc5cnc[nH]5)cc4)c3)nc12
  IC50: 0.69 µM

## Cc1c(Br)cc2[nH]c(-c3ccc(C(=O)NC4CCN(Cc5ccccc5)CC4)cc3)nc2c1C
  IC50: 0.33 µM

## CC(C)CNCc1cccc(-c2ccc(CN(C(=O)NC3CCCCC3)C3CCN(Cc4ccccc4)CC3)cc2)c1
  IC50: 0.76 µM

## N#Cc1ccc(N2CCN(Cc3cccc(-c4ccc(-c5nc6ccc(C(F)(F)F)cc6[nH]5)s4)c3)CC2)nc1
  IC50: 1.04 µM

## COc1ccc(-c2ccc(NC(=O)c3ccc(Cl)cc3)cc2)cc1CN1CCCN(C)CC1
  IC50: 0.65 µM

## CN1CC=C(c2c[nH]c3ccc(Sc4ccccc4)cc23)CC1
  IC50: 0.36 µM

## Cc1cc(CN2CCC(Nc3ncc(-c4ccsc4)c4nc(C(F)(F)F)ccc34)CC2)no1
  IC50: 1.1 µM

## CO/N=C(\C)c1ccc2c(c1)CCN(CCC1CCC(NC(=O)/C=C/c3ccc(F)cc3)CC1)CC2 (configuration not stated)
  IC50: 1.07 µM

## O=C(Nc1ccc(-c2ccc(-c3nc4ccc(C(F)(F)F)cc4[nH]3)s2)cc1)c1ccoc1
  IC50: 0.85 µM

## Cc1cccc(-c2cccc3c(NC(=O)N4CCc5cc6nccc(N7CCN8CCC[C@H]8C7)c6cc54)cccc23)n1
  IC50: 0.92 µM

## CCC(C)c1ccc(-n2c(Nc3ccccc3)nc3cc(S(N)(=O)=O)ccc32)cc1 (configuration not stated)
  IC50: 1.06 µM

## CC(Cc1ccc(OCCN2CCN(c3cccc(Cl)c3)CC2)cc1)NCC(O)c1cccc(Cl)c1 (configuration not stated)
  IC50: 1.21 µM

## c1cc(-c2nc3ccccc3[nH]2)nc(-c2nc3ccccc3[nH]2)c1
  IC50: 1.12 µM

## CCCSc1nc2c(c(=O)n1CCc1ccccc1)C1(CCCC1)Cc1ccccc1-2
  IC50: 0.7 µM

## CCCNCc1ccc(-c2ccc(CN(CCOC)C(=O)Cc3cccnc3)cc2)nc1
  IC50: 0.82 µM

## CCCN(CCC)S(=O)(=O)c1ccc(C(=O)N2CCC(C(=O)OCC)CC2)cc1
  IC50: 0.8 µM

## O=C(NCCCc1ccccc1)c1ccc(O)c(-c2cc(Cl)cc(Cl)c2)c1
  IC50: 0.57 µM

## CC(C)(C)NC(=O)c1ccc(Oc2ccc(OC(F)(F)F)cc2)c(NC(=O)C(C)(C)C)c1
  IC50: 0.98 µM

## O=C(/C=C/c1ccc(Cl)c(Cl)c1)NCCCCCN1CCC(C(=O)Nc2ccc(Cl)c(Cl)c2)CC1
  IC50: 0.64 µM

## COc1cc(NC(=O)Nc2ccnc3ccccc23)cc(OC)c1
  IC50: 0.47 µM

## Cn1c(NC(=O)CCCCCNC(=O)c2ccc(O)c(-c3ccc(Cl)c(Cl)c3)c2)nc2ccccc21
  IC50: 0.73 µM

## CN1CC=C(c2c[nH]c3ccc(Br)cc23)CC1
  IC50: 1.19 µM

## C[C@H](Cc1ccc(C(=O)OC(c2ccccc2)c2ccccc2)cc1)NC[C@H](O)c1ccccc1
  IC50: 0.18 µM

## CC1CCN(Cc2cccc(C(=O)NCc3ccc(F)c(-c4cccc(CN5CCN[C@@H](C)C5)c4)c3)c2)CC1
  IC50: 1.46 µM

## CCOc1cc(Br)c(C(C)NC(=O)c2cccc(OC)c2)cc1OCC (configuration not stated)
  IC50: 0.17 µM

## COc1c(C2=CCN(CCCCNC(=O)c3ccc(-c4ccc(C#N)cc4)cc3)CC2)ccc2c1CCCC2
  IC50: 0.91 µM

## CC(C)(CNC(=O)C1CCN(Cc2ccc(Cl)cc2)CC1)c1nc(-c2ccc(Cl)c(O)c2)c(-c2ccncc2)[nH]1
  IC50: 0.62 µM

## COC(=O)c1cccc(CNCc2ccc(-c3ccc(-c4nc5ccc(C(F)(F)F)cc5[nH]4)cc3)cc2)c1
  IC50: 0.3 µM

## CO/C(=C\C=C\c1cc2cc(Cl)c(Cl)cc2[nH]1)C(=O)NC1CCN(CCCc2ccccc2)CC1
  IC50: 0.77 µM

## O=C(/C=C/c1ccc(Cl)c(Cl)c1)N1CCN(C(=O)Nc2ccc(C(F)(F)F)cc2)CC1
  IC50: 0.67 µM

## Fc1ccc(C=NNc2nc3ccccc3[nH]2)cc1
  IC50: 0.78 µM

## Cc1ccc(-c2nnc(Nc3ccc(CC(N)=O)cc3)c3ccccc23)cc1S(=O)(=O)NCC1CCCO1 (configuration not stated)
  IC50: 0.79 µM

## COc1ccc(CC(C)NCC(O)c2cccc(Br)c2)cc1 (configuration not stated)
  IC50: 0.96 µM

## Cn1c(=O)c2cc(C(=O)NCCCN3CCCCCC3)sc2c2ccccc21
  IC50: 0.69 µM

## CC(C)CNC(=O)c1cncc(-c2ccc(CN3CCC(N4CCCC4)CC3)cc2)c1
  IC50: 0.69 µM

## Cc1cc(Nc2ccnc(-c3ccc(Cl)cc3)n2)ccn1
  IC50: 1.04 µM

## COc1ccccc1NC(=O)Nc1ccc(-c2cccc(-c3nc4ccccc4[nH]3)c2)cc1
  IC50: 0.64 µM

## CCNc1cc(C)nc(Nc2ccc(NC(=O)Cc3ccc(OC)cc3)cc2)n1
  IC50: 1.38 µM

## COC(=O)c1ccc(C[C@@H](C)NC[C@H](O)c2cccc(C(F)(F)F)c2)cc1
  IC50: 0.79 µM and 0.76 µM

## CN(C)CCN(C)Cc1cccc(-c2cccc(NC(=O)c3cccc(C#N)c3)c2)c1
  IC50: 0.87 µM

## CN(C)CCn1c(N)c(-c2nc3ccccc3s2)c2nc(C#N)c(C#N)nc21
  IC50: 1.01 µM

## C=CCNC(CCCCC)c1ccc(OCCOc2ccc(C(CCCCC)NCC=C)cc2)cc1 (configuration not stated)
  IC50: 0.57 µM

## CCOC(=O)C1CCN(CCOc2cc(NC(=O)/C=C/c3ccccc3Cl)ccc2Br)CC1
  IC50: 0.99 µM

## O=C(Cc1cnc[nH]1)Nc1cccc(-c2ccc(-c3nc4ccc(C(F)(F)F)cc4[nH]3)s2)c1
  IC50: 0.77 µM

## CC(=O)NCCNc1cc(N2CCc3ncnc(Nc4ccc(OCc5c(F)cccc5F)c(Cl)c4)c3C2)ncn1
  IC50: 0.16 µM

## Cn1cnc2nc(NCCc3ccccc3)nc(NCc3cccc4ccccc34)c21
  IC50: 0.33 µM

## Cc1sc2ncnc(Sc3nc4ccccc4[nH]3)c2c1C
  IC50: 0.26 µM

— PubChem BioAssay AID2305 (GlaxoSmithKline (GSK), 2010)
